In this data set the test system is human Factor 7 mRNA. Kind of data set: Inhibition of human Factor 7 mRNA by 2-10-2 MOE shortmers in HepB3 cells, electroporation, 1,000 nM. The class given is cell-based. The settings on record: electroporation, 1,000 nM oligonucleotide, approximately 24 hours, relative to untreated control cells. The method in brief:
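14-mer 2-10-2 2′-MOE gapmers, full phosphorothioate, 5-methylcytidines, electroporated at 1,000 nM into HepB3 cells (20,000/well). After ~24 h, mRNA quantified by real-time RT-PCR, normalized to RIBOGREEN total RNA; percent inhibition relative to untreated cells.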

In the oligonucleotide strings, read from the 5' end, every base follows the letter of its sugar. An asterisk marks phosphorothioate; unmarked linkages are phosphodiester. Other units and linkages are bracketed, terminal groups are in braces. A string of capitals states the bases alone. e = 2'-O-(2-methoxyethyl) (MOE); [5mC] = 5-methylcytosine; d = 2'-deoxy (DNA)

Consider “435778 (antisense eG*e[5mC]*dT*dA*d[5mC]*dT*dG*dG*dG*d[5mC]*d[5mC]*dA*e[5mC]*eG) [compound 435778]”, for which the “% inhibition of human Factor 7 mRNA” value is listed as 49%.

For the substance “435494 (antisense eA*eG*dA*d[5mC]*d[5mC]*d[5mC]*dT*dG*dG*dT*dG*dT*eA*e[5mC]) [compound 435494]”, the “% inhibition of human Factor 7 mRNA” value was 47%.

Take “435485 (antisense eT*e[5mC]*d[5mC]*dT*dG*dG*dG*dT*d[5mC]*dA*dT*d[5mC]*eA*eG) [compound 435485]”: the “% inhibition of human Factor 7 mRNA” value is recorded as 34%.

“435845 (antisense eG*e[5mC]*dT*d[5mC]*dA*dT*dG*dG*d[5mC]*dA*dG*dA*e[5mC]*eA) [compound 435845]”: the “% inhibition of human Factor 7 mRNA” value worked out at 21%.

For “435656 (antisense eA*e[5mC]*dT*dG*d[5mC]*dT*d[5mC]*dA*d[5mC]*dA*dG*d[5mC]*e[5mC]*eG) [compound 435656]”, the “% inhibition of human Factor 7 mRNA” value worked out at 58%.

On to “435722 (antisense eT*eG*dG*dG*d[5mC]*dT*dT*dG*dG*d[5mC]*dT*dG*eA*eA) [compound 435722]”, for which the “% inhibition of human Factor 7 mRNA” value amounted to 50%.

With “435492 (antisense eA*e[5mC]*d[5mC]*d[5mC]*dT*dG*dG*dT*dG*dT*dA*d[5mC]*eA*e[5mC]) [compound 435492]”, the “% inhibition of human Factor 7 mRNA” value was 45%.

Take “435754 (antisense eT*e[5mC]*dA*dG*d[5mC]*dA*dA*dG*dA*dG*dT*dG*e[5mC]*eA) [compound 435754]”: the “% inhibition of human Factor 7 mRNA” value was determined as 16%.

In the case of “435753 (antisense eA*eA*dG*dA*dG*dT*dG*d[5mC]*dA*dG*d[5mC]*dT*eT*eG) [compound 435753]”, the “% inhibition of human Factor 7 mRNA” value was 9%.

Regarding “435824 (antisense e[5mC]*e[5mC]*dT*dA*dA*dA*dG*dA*dT*dG*dA*dA*eT*e[5mC]) [compound 435824]”, the “% inhibition of human Factor 7 mRNA” value stood at 21%.

Consider “435502 (antisense eG*eT*dA*d[5mC]*dT*dG*dG*dG*dA*dG*dA*d[5mC]*e[5mC]*e[5mC]) [compound 435502]”, for which the “% inhibition of human Factor 7 mRNA” value amounted to 69%.

For the substance “435741 (antisense eA*eG*dG*dG*dT*dT*d[5mC]*dA*dT*dT*dT*d[5mC]*eA*eG) [compound 435741]”, the “% inhibition of human Factor 7 mRNA” value came to 6%.

Turning to “435811 (antisense eG*eT*dG*dG*dT*d[5mC]*dA*dA*dG*dG*dA*dT*eG*eA) [compound 435811]”, the “% inhibition of human Factor 7 mRNA” value is recorded as 27%.

On to “435501 (antisense eT*eA*d[5mC]*dT*dG*dG*dG*dA*dG*dA*d[5mC]*d[5mC]*e[5mC]*eT) [compound 435501]”, for which the “% inhibition of human Factor 7 mRNA” value is 51%.

Turning to “435670 (antisense e[5mC]*eA*dA*d[5mC]*dA*dG*dG*dA*d[5mC]*d[5mC]*dT*dG*e[5mC]*e[5mC]) [compound 435670]”, the “% inhibition of human Factor 7 mRNA” value is 47%.

Take “435681 (antisense eA*eT*dG*dA*d[5mC]*d[5mC]*dT*dG*d[5mC]*dG*d[5mC]*d[5mC]*eA*e[5mC]) [compound 435681]”: the “% inhibition of human Factor 7 mRNA” value was determined as 40%.

“435720 (antisense eA*eG*dG*d[5mC]*dT*d[5mC]*dA*dG*d[5mC]*dT*dG*dG*eG*e[5mC]) [compound 435720]”: the “% inhibition of human Factor 7 mRNA” value amounted to 16%.

Consider “435838 (antisense eT*e[5mC]*d[5mC]*dA*dT*dG*dG*dA*d[5mC]*dA*d[5mC]*dT*eA*eA) [compound 435838]”, for which the “% inhibition of human Factor 7 mRNA” value was found to be 29%.

Take “435680 (antisense eG*eT*dG*d[5mC]*dT*d[5mC]*dG*d[5mC]*dT*dG*dA*dG*eG*eT) [compound 435680]”: the “% inhibition of human Factor 7 mRNA” value came out at 52%.

In the case of “435684 (antisense eA*eG*d[5mC]*dA*dG*d[5mC]*dG*d[5mC]*dG*dA*dT*dG*eT*e[5mC]) [compound 435684]”, the “% inhibition of human Factor 7 mRNA” value is given as 56%.

Turning to “435796 (antisense eT*eG*dA*d[5mC]*d[5mC]*dA*d[5mC]*dA*d[5mC]*dA*dT*dT*eT*e[5mC]) [compound 435796]”, the “% inhibition of human Factor 7 mRNA” value is given as 30%.

Take “435804 (antisense e[5mC]*eA*dG*dG*dG*dA*d[5mC]*dT*d[5mC]*dT*d[5mC]*dA*eG*e[5mC]) [compound 435804]”: the “% inhibition of human Factor 7 mRNA” value came out at 26%.

Consider “435668 (antisense eT*eG*d[5mC]*d[5mC]*dA*dT*dG*dG*dA*d[5mC]*dA*d[5mC]*eT*e[5mC]) [compound 435668]”, for which the “% inhibition of human Factor 7 mRNA” value amounted to 75%.

With “435743 (antisense eG*e[5mC]*d[5mC]*dT*d[5mC]*dA*dA*dA*d[5mC]*dA*dT*d[5mC]*eT*eA) [compound 435743]”, the “% inhibition of human Factor 7 mRNA” value is listed as 40%.

“435695 (antisense eG*eA*d[5mC]*dT*dG*d[5mC]*dT*dG*d[5mC]*dA*dG*dG*e[5mC]*eA) [compound 435695]”: the “% inhibition of human Factor 7 mRNA” value was determined as 48%.

As to “435661 (antisense eG*eG*dA*d[5mC]*dA*d[5mC]*d[5mC]*d[5mC]*d[5mC]*dG*dT*d[5mC]*eT*eG) [compound 435661]”, the “% inhibition of human Factor 7 mRNA” value worked out at 18%.

Regarding “435812 (antisense eG*e[5mC]*dT*dG*dA*dG*d[5mC]*dA*dG*dA*dG*dA*eT*e[5mC]) [compound 435812]”, the “% inhibition of human Factor 7 mRNA” value was found to be 35%.

For the substance “435663 (antisense e[5mC]*e[5mC]*dA*d[5mC]*dA*dT*dG*dG*dA*dT*dA*dT*eT*e[5mC]) [compound 435663]”, the “% inhibition of human Factor 7 mRNA” value is recorded as 50%.

Take “435696 (antisense e[5mC]*eA*dG*dA*dA*d[5mC]*dA*dT*dG*dT*dA*d[5mC]*eT*e[5mC]) [compound 435696]”: the “% inhibition of human Factor 7 mRNA” value stood at 10%.

In the case of “435841 (antisense e[5mC]*eT*d[5mC]*dG*dG*dA*d[5mC]*dA*dA*dA*dA*dG*eA*eG) [compound 435841]”, the “% inhibition of human Factor 7 mRNA” value was 1%.

Consider “435851 (antisense eA*e[5mC]*dA*dG*dG*d[5mC]*d[5mC]*dA*dG*dG*d[5mC]*dT*eG*eG) [compound 435851]”, for which the “% inhibition of human Factor 7 mRNA” value was found to be 0%.

“435756 (antisense eT*eG*d[5mC]*d[5mC]*d[5mC]*dA*dG*dG*dA*d[5mC]*dG*dG*e[5mC]*e[5mC]) [compound 435756]”: the “% inhibition of human Factor 7 mRNA” value was 20%.

For “435834 (antisense eT*eG*dA*d[5mC]*dA*dG*d[5mC]*dA*d[5mC]*dG*dA*dA*eG*e[5mC]) [compound 435834]”, the “% inhibition of human Factor 7 mRNA” value worked out at 20%.

As for “435783 (antisense eA*eA*dA*d[5mC]*d[5mC]*dG*dG*d[5mC]*dA*dT*dG*d[5mC]*eG*e[5mC]) [compound 435783]”, the “% inhibition of human Factor 7 mRNA” value was determined as 49%.

For the substance “435634 (antisense eT*eG*dA*dA*dA*dT*d[5mC]*dT*d[5mC]*dT*dG*d[5mC]*eA*eG) [compound 435634]”, the “% inhibition of human Factor 7 mRNA” value is listed as 5%.

As for “435816 (antisense eT*e[5mC]*d[5mC]*dA*dA*dA*dG*dG*dA*d[5mC]*dA*dA*eG*eG) [compound 435816]”, the “% inhibition of human Factor 7 mRNA” value is reported as 4%.

In the case of “435666 (antisense eG*eG*dT*dT*dT*dG*d[5mC]*dT*dG*dG*d[5mC]*dA*eT*eT) [compound 435666]”, the “% inhibition of human Factor 7 mRNA” value stood at 71%.

“435478 (antisense eG*eA*dG*dG*d[5mC]*dA*d[5mC]*dA*d[5mC]*dT*dG*dG*eT*e[5mC]) [compound 435478]”: the “% inhibition of human Factor 7 mRNA” value is 43%.

Consider “435642 (antisense eA*e[5mC]*dA*d[5mC]*dT*dG*dG*dT*d[5mC]*d[5mC]*d[5mC]*d[5mC]*eA*eT) [compound 435642]”, for which the “% inhibition of human Factor 7 mRNA” value came to 60%.

As for “435791 (antisense eA*eT*dG*dA*dG*dA*dA*dA*dT*dG*d[5mC]*dT*eT*eT) [compound 435791]”, the “% inhibition of human Factor 7 mRNA” value was determined as 0%.

With “435655 (antisense eA*e[5mC]*dA*dG*d[5mC]*d[5mC]*dG*d[5mC]*d[5mC]*dG*dT*dT*e[5mC]*eT) [compound 435655]”, the “% inhibition of human Factor 7 mRNA” value is 49%.

Turning to “435802 (antisense eG*eT*d[5mC]*dA*d[5mC]*d[5mC]*dT*dA*dG*dA*d[5mC]*d[5mC]*eA*eA) [compound 435802]”, the “% inhibition of human Factor 7 mRNA” value was 61%.

Consider “435809 (antisense e[5mC]*eT*dG*dA*d[5mC]*dA*dA*dT*dG*dT*dG*dA*eT*eG) [compound 435809]”, for which the “% inhibition of human Factor 7 mRNA” value worked out at 5%.

For “435647 (antisense eA*eG*dA*dT*dA*dT*dA*dG*dG*dA*d[5mC]*dT*eG*eG) [compound 435647]”, the “% inhibition of human Factor 7 mRNA” value is 0%.

Take “435691 (antisense e[5mC]*eA*dG*d[5mC]*d[5mC]*dG*d[5mC]*dT*dG*dA*d[5mC]*d[5mC]*eA*eA) [compound 435691]”: the “% inhibition of human Factor 7 mRNA” value came to 25%.

For “435819 (antisense eT*eT*dT*dG*dT*d[5mC]*d[5mC]*dA*dG*dT*dA*dA*eG*eA) [compound 435819]”, the “% inhibition of human Factor 7 mRNA” value is 1%.

“435728 (antisense eA*e[5mC]*dA*d[5mC]*dA*dT*dG*dG*dA*dG*dT*d[5mC]*eA*eG) [compound 435728]”: the “% inhibition of human Factor 7 mRNA” value stood at 16%.

As for “435717 (antisense eT*eG*dA*dG*d[5mC]*dT*dT*dT*dT*dG*d[5mC]*dA*eG*e[5mC]) [compound 435717]”, the “% inhibition of human Factor 7 mRNA” value amounted to 0%.

Turning to “435822 (antisense e[5mC]*e[5mC]*dA*dG*dG*dA*dG*d[5mC]*d[5mC]*dT*dT*dT*eA*e[5mC]) [compound 435822]”, the “% inhibition of human Factor 7 mRNA” value was 37%.

Take “435726 (antisense eG*e[5mC]*dA*dA*dT*dG*dA*dA*dG*dG*d[5mC]*dA*eG*eA) [compound 435726]”: the “% inhibition of human Factor 7 mRNA” value is recorded as 26%.

In the case of “435646 (antisense eT*eA*dG*dG*dA*d[5mC]*dT*dG*dG*dA*dG*d[5mC]*eT*eG) [compound 435646]”, the “% inhibition of human Factor 7 mRNA” value is on record as 13%.

With “435488 (antisense e[5mC]*eA*dG*dT*d[5mC]*d[5mC]*dT*dG*dG*dG*dT*d[5mC]*eA*eT) [compound 435488]”, the “% inhibition of human Factor 7 mRNA” value worked out at 17%.
